Test results as given in PubChem BioAssay (NCI).
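Values below derive from 48-hour exposures of cells grown in 96-well plates, with endpoints linearly interpolated between the two concentrations bracketing the appropriate inhibition level. The concentration for 50% growth inhibition is given as GI50. TGI marks complete inhibition of growth.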

Key:
Experiment in all cases: growth of human tumour cells (NCI), 48 h; in the data active = GI50 below about 0.43 µM; inactive = the rest
[1] = tested on: 786-0 renal
[2] = tested on: A498 renal
[3] = tested on: A549 NSCLC
[4] = tested on: BT-549 breast
[5] = tested on: CAKI-1 renal
[6] = tested on: CCRF-CEM leukemia
[7] = tested on: COLO 205 colon
[8] = tested on: DU-145 prostate
[9] = tested on: EKVX NSCLC
[10] = tested on: HCC-2998 colon
[11] = tested on: HCT-116 colon
[12] = tested on: HCT-15 colon
[13] = tested on: HOP-62 NSCLC
[14] = tested on: HOP-92 NSCLC
[15] = tested on: HS 578T breast
[16] = tested on: HT29 colon
[17] = tested on: IGROV1 ovarian
[18] = tested on: LOX IMVI melanoma
[19] = tested on: M14 melanoma
[20] = tested on: MCF7 breast
[21] = tested on: MDA-MB-231 breast
[22] = tested on: MDA-MB-435
[23] = tested on: NCI-H226 lung
[24] = tested on: NCI-H23 lung
[25] = tested on: NCI-H460 lung
[26] = tested on: NCI-H522 lung
[27] = tested on: NCI/ADR-RES ovarian
[28] = tested on: OVCAR-3 ovarian
[29] = tested on: OVCAR-4 ovarian
[30] = tested on: OVCAR-5 ovarian
[31] = tested on: OVCAR-8 ovarian
[32] = tested on: PC-3 prostate
[33] = tested on: RPMI-8226 leukemia
[34] = tested on: RXF 393 renal
[35] = tested on: SF-268 CNS
[36] = tested on: SF-295 CNS
[37] = tested on: SF-539 CNS
[38] = tested on: SK-MEL-2 melanoma
[39] = tested on: SK-MEL-28 melanoma
[40] = tested on: SK-MEL-5 melanoma
[41] = tested on: SK-OV-3 ovarian
[42] = tested on: SN12C renal
[43] = tested on: SNB-19 CNS
[44] = tested on: SNB-75 CNS
[45] = tested on: SW-620 colon
[46] = tested on: T-47D breast
[47] = tested on: U251 CNS
[48] = tested on: UACC-257 melanoma
[49] = tested on: UACC-62 melanoma
[50] = tested on: UO-31 renal
[51] = tested on: ACHN renal
[52] = tested on: K-562 leukemia
[53] = tested on: KM12 colon
[54] = tested on: MALME-3M melanoma
[55] = tested on: MOLT-4 leukemia
[56] = tested on: TK-10 renal

Nc1ncc2ccc3c(ccn3C3CC(O)C(CO)O3)c2n1 (configuration not stated)
inactive: GI50 [1] > 100 µM | GI50 [2] 18.3 µM | GI50 [3] > 100 µM | GI50 [4] > 100 µM | GI50 [5] > 100 µM | GI50 [6] > 100 µM | GI50 [7] > 100 µM | GI50 [8] > 100 µM | GI50 [9] > 100 µM | GI50 [10] > 100 µM | GI50 [11] > 100 µM | GI50 [12] > 100 µM | GI50 [13] > 100 µM | GI50 [14] > 100 µM | GI50 [15] > 100 µM | GI50 [16] > 100 µM | GI50 [17] > 100 µM | GI50 [18] > 100 µM | GI50 [19] > 100 µM | GI50 [20] 87.2 µM | GI50 [21] > 100 µM | GI50 [22] > 100 µM | GI50 [23] > 100 µM | GI50 [24] > 100 µM | GI50 [25] > 100 µM | GI50 [26] > 100 µM | GI50 [27] > 100 µM | GI50 [28] > 100 µM | GI50 [29] > 100 µM | GI50 [30] > 100 µM | GI50 [31] > 100 µM | GI50 [32] > 100 µM | GI50 [33] > 100 µM | GI50 [34] > 100 µM | GI50 [35] > 100 µM | GI50 [36] > 100 µM | GI50 [37] > 100 µM | GI50 [38] > 100 µM | GI50 [39] > 100 µM | GI50 [40] > 100 µM | GI50 [41] > 100 µM | GI50 [42] > 100 µM | GI50 [43] > 100 µM | GI50 [44] 42.4 µM | GI50 [45] > 100 µM | GI50 [46] > 100 µM | GI50 [47] > 100 µM | GI50 [48] > 100 µM | GI50 [49] > 100 µM | GI50 [50] > 100 µM
> 100 µM: TGI [1] | TGI [2] | TGI [3] | TGI [4] | TGI [5] | TGI [6] | TGI [7] | TGI [8] | TGI [9] | TGI [10] | TGI [11] | TGI [12] | TGI [13] | TGI [14] | TGI [15] | TGI [16] | TGI [17] | TGI [18] | TGI [19] | TGI [20] | TGI [21] | TGI [22] | TGI [23] | TGI [24] | TGI [25] | TGI [26] | TGI [27] | TGI [28] | TGI [29] | TGI [30] | TGI [31] | TGI [32] | TGI [33] | TGI [34] | TGI [35] | TGI [36] | TGI [37] | TGI [38] | TGI [39] | TGI [40] | TGI [41] | TGI [42] | TGI [43] | TGI [44] | TGI [45] | TGI [46] | TGI [47] | TGI [48] | TGI [49] | TGI [50]

CO[C@@H]1[C@H](O)CC[C@]2(CO2)[C@H]1[C@@]1(C)O[C@@H]1CC=C(C)C
> 200 µM: TGI [1] | TGI [2] | TGI [51] | TGI [4] | TGI [5] | TGI [6] | TGI [7] | TGI [8] | TGI [9] | TGI [11] | TGI [12] | TGI [13] | TGI [14] | TGI [15] | TGI [16] | TGI [17] | TGI [52] | TGI [53] | TGI [18] | TGI [19] | TGI [54] | TGI [20] | TGI [21] | TGI [22] | TGI [55] | TGI [23] | TGI [24] | TGI [25] | TGI [26] | TGI [27] | TGI [28] | TGI [29] | TGI [30] | TGI [32] | TGI [33] | TGI [34] | TGI [35] | TGI [36] | TGI [37] | TGI [38] | TGI [39] | TGI [40] | TGI [41] | TGI [42] | TGI [43] | TGI [44] | TGI [45] | TGI [46] | TGI [56] | TGI [47] | TGI [49] | TGI [50]
